Test results from the METLIN SMRT retention time set (Domingo-Almenara et al. 2019).

Test: gradient 5% acetonitrile 3 min, to 50% in 2 min, to 85% in 15 min, held 3 min, 100 µL/min
Details: column: Zorbax Extend-C18 2.1 x 50 mm; eluents: water / acetonitrile, 0.1% formic acid
Method in brief: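 Values are retention times taken from adduct peaks that software picked and an analyst inspected. The pure standards were run as mixtures of ~100 molecules on HPLC linked to a quadrupole time-of-flight mass spectrometer, in positive and negative ionization mode. A Zorbax Extend-C18 column (2.1 × 50 mm, 1.8 μm) was used at 100 μL/min with water and acetonitrile, each including 0.1% formic acid.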

| Structure (SMILES) | RP-LC retention time |
| --- | --- |
| O=C(Nc1ccc(SCc2nnc(-c3ccccc3)o2)cc1)c1cccs1 | 968 s |
| Cc1noc(C)c1CC(=O)NCC1Cn2cccc2C(=O)N1C (centres undefined) | 598 s |
| CC(CNC(=O)Cc1csc2nc(-c3ccccc3)cn12)c1ccccc1 (centres undefined) | 841 s |
| COc1ccc(OC)c(NC(=O)NC2CCN(c3ccc(C)cc3)C2=O)c1 (centres undefined) | 837 s |
| O=C(N1CCCC1c1nc(CCOCC2CC2)no1)C1(c2ccccc2)CC1 (centres undefined) | 886 s |
| Cn1c(CC2CCN(C(=O)C3CC(=O)N(C4CCCCCC4)C3)C2)nc2cccnc21 (centres undefined) | 599 s |
| Cc1nnc(-c2ccc3ccn(CC(=O)N4CCN(C5CCCCC5)CC4)c3c2)o1 | 620 s |
| CCOc1nc2ccccc2nc1N1CCCC(C(=O)Nc2ccccc2CC)C1 (centres undefined) | 1120 s |
| Cc1cc(C)c(CNC(=O)c2ccc(NC(=O)C3CC3)cc2N2CCOCC2)c(C)c1 | 901 s |
| CCOC(=O)C(C(=O)N1CCN(C)CC1)C1CCCCC1 (centres undefined) | 629 s |
| c1ccc(-c2csc(Nc3nc(NCc4ccco4)nc(N4CCCCC4)n3)n2)cc1 | 1210 s |
| COc1cccc(CCC(=O)NC2(c3nc(C)no3)CCCCC2)c1 | 856 s |
| COc1ccc(N2CC(c3nc(-c4cc(OC)c(OC)c(OC)c4)no3)CC2=O)cc1Cl (centres undefined) | 905 s |
| CCC(c1cccs1)N1C(=O)[C@H]2CN(S(=O)(=O)c3ccc(Cl)cc3)C[C@H]2C1=O (some centres undefined) | 1060 s |
| CNC(=O)[C@@H]1CN(C(=O)CCn2nc(C)cc2C)C[C@H]1c1n[nH]c(C)n1 | 554 s |
| COc1ccc(C2(C(=O)N3CCC4(CC3)CC(C)(O)CCO4)CC2)cc1 (centres undefined) | 707 s |
| CCCn1c(-c2cccc(C(=O)NCc3ccc(SC)cc3)c2)nc2cccnc21 | 874 s |
| CCSc1nnc(NC(=O)c2csc(Nc3cccnc3)n2)s1 | 588 s |
| CCCn1c(=O)c2sc(N3CCCC3)nc2n(CC(=O)Nc2cc(F)cc(F)c2)c1=O | 902 s |
| COc1ccc(Cl)cc1Nc1nc(N)nc(CN2CCN(c3ccccn3)CC2)n1 | 612 s |
| CC(C)Cn1cc(CCNS(=O)(=O)c2ccc(C(C)C)cc2)c2cccnc21 | 1110 s |
| CCC(C)NC(=O)C1CCN(CCc2cn(C)c3ncccc23)CC1 (centres undefined) | 574 s |
| CCC(=O)Nc1c(C)noc1/C=C/c1ccc(S(=O)(=O)Nc2ccc(S(N)(=O)=O)cc2)s1 | 719 s |

| Structure (SMILES) | RP-LC retention time |
| --- | --- |
| CCOc1ccccc1-c1noc(-c2nnn3c2COC(c2cccc(OC)c2)C3)n1 (centres undefined) | 1080 s |
| CCN1CCCC(C(=O)NCc2cccs2)(c2ccccc2)CC1 (centres undefined) | 643 s |
| COc1cccc(C(O)CN2CCN(c3ccccc3OC)CC2)c1 (centres undefined) | 659 s |
| CCn1nccc1C(=O)NC1CCN(c2cc(-c3ccccc3)[nH]n2)CC1 | 688 s |
| CCOC(=O)c1cnn(-c2ccc(C(=O)NC(C)C)cc2)c1N | 823 s |
| O=C(c1cncc(Br)c1)N1CCN(C(=O)c2cc(-c3ccncc3)n[nH]2)CC1 | 578 s |
| O=C(NCCCN1CCCCC1)C1CN(S(=O)(=O)c2cccnc2)CC12CCCCC2 (centres undefined) | 573 s |
| COc1ccccc1N1CCN(C(=O)c2cn(-c3cc(N4CCCCC4)ncn3)cn2)CC1 | 856 s |
| Clc1cccc(-c2nc(-c3ccc(-n4ccnc4)nc3)no2)c1 | 815 s |
| CCc1cc(C(=O)Nc2ccc(OC)c(Cl)c2)nc2ccnn12 | 1040 s |
| COc1ccc(C(=O)NCC(=O)Nc2nc3ccccc3[nH]2)c(C)c1 | 630 s |
| Cc1ccc(-c2noc(CSc3nccn3-c3ccccc3)n2)cc1 | 938 s |
| O=c1c2cc(-c3ccc4c(c3)OCO4)nn2ccn1Cc1nc(-c2cccc(F)c2)no1 | 1010 s |
| Cn1nccc1-c1cccc(-c2noc(-c3cccc(F)c3)n2)c1 | 1150 s |
| COc1cc(OC)cc(C(=O)N2CCN=C2N2CCC(C)CC2)c1 | 694 s |
| Cc1cc(C)n(-c2ccnc(NCCc3cccnc3)n2)n1 | 584 s |
| CCC(=O)Nc1ccc(C2(C(=O)NC(C)CC)CCCCC2)cc1 (centres undefined) | 845 s |
| CCc1cccc(NC(=O)Cn2nc3c(N(C)C4CCCCC4)nccn3c2=O)c1 | 851 s |
| COC(=O)Nc1ccc(-c2nc(N3CCOCC3)c3cnn(C4CCN(C(=O)OC)CC4)c3n2)cc1 | 861 s |
| CC(C)c1noc(N2CCC(COc3ccc(-c4ccc(S(C)(=O)=O)cc4)nc3)CC2)n1 | 991 s |
| CN(C)c1ccc(-c2nc3ccccc3s2)cc1 | 1130 s |
| COC(=O)c1ccc(OC)c(Cn2cnc3c(-c4ccccc4)csc3c2=O)c1 | 988 s |
| CCc1noc(NC(C)=O)c1-c1ccc(OC)c(S(=O)(=O)Nc2cc(C)ccc2C)c1 | 846 s |

| Structure (SMILES) | RP-LC retention time |
| --- | --- |
| CCn1cc(-c2ccc(OC)cc2)cc1C(=O)N1CCCN(C)CC1 | 627 s |
| COc1cccc(S(=O)(=O)N2CCc3c(c(-c4nnc(-c5ccccc5)o4)nn3C)C2)c1 | 933 s |
| N#Cc1ccc(C(=O)N2CCCC2c2nc(-c3ccccc3)n[nH]2)cc1 (centres undefined) | 696 s |
| COc1ccc(CNC(=O)Cn2cc(-c3nnc(C)o3)ccc2=O)cc1 | 635 s |
| CCc1ccccc1NC(=O)N(C)CCc1noc(COc2ccccc2F)n1 | 907 s |
| Fc1ccccc1-c1ccc(CNCc2cccs2)o1 | 706 s |
| O=C(Cc1ccc(F)cc1)Nc1cc(-c2cccnc2)no1 | 730 s |
| COC(=O)c1ccc2c(=O)n(Cc3cccc(OC)c3)c(N3CCOCC3)nc2c1 | 936 s |
| COc1ccc(NC(=O)c2cnc(N3CCC4(CC3)OCCO4)nc2N)cc1 | 635 s |
| Cc1oc(-c2[nH]ncc2C(=O)N2CCCC2)cc1S(=O)(=O)NCc1ccco1 | 651 s |
| Cc1cc(C)cc(C(=O)N2CCC3(CC2)NC(=O)c2ccccc2N3C)c1 | 804 s |
| O=c1ccc(-c2ccncc2)nn1CCCNS(=O)(=O)c1cccs1 | 571 s |
| Cc1ccc2ncn(C3CCN(C(=O)Nc4ccc(F)cc4)CC3)c(=O)c2c1 | 765 s |
| CCN(CC)CCCN(c1ccccc1)C1Cc2ccccc2C1 | 754 s |
| COC(=O)c1ccc(CSc2nccc3c(OC)cccc23)o1 | 1100 s |
| Cc1noc(C)c1COc1ccccc1CN1CCC2(CCC2O)CC1 (centres undefined) | 621 s |
| CC1Oc2ccc(-c3csc(NC(=O)c4ccc(F)cc4)n3)cc2N(C)C1=O (centres undefined) | 1010 s |
| CN(C)S(=O)(=O)N1CCC(c2nnc(C(F)(F)F)o2)CC1 | 758 s |
| CCCS(=O)(=O)N1CCC(CCOC)(NC(=O)C2CC2)CC1 | 686 s |
| CN1CCN(CCCNC(=O)c2cc(-c3cccnc3)nc3ccc(Br)cc23)CC1 | 542 s |
| COc1cccc(-c2nc(C3CCN(S(=O)(=O)c4c(C)cc(C)cc4C)CC3)no2)c1 | 1320 s |
| O=C(N[C@H]1C[C@@H]2C[C@H]1N(C(=O)c1ccccc1Cl)C2)c1ccccc1 | 717 s |
| CCc1nnc(-c2cc(C)n(CC(=O)Nc3cc(C)cc(C)c3)c2C)o1 | 887 s |

| Structure (SMILES) | RP-LC retention time |
| --- | --- |
| CCc1nc(-c2csc(S(=O)(=O)N3CCCC(C(=O)Nc4ccc(Cl)cn4)C3)c2)no1 (centres undefined) | 1080 s |
| CCn1c(=O)c(N2CCCC(C(=O)N3CCN(c4ccc(OC)cc4)CC3)C2)nc2ccccc21 (centres undefined) | 987 s |
| C=CCN1C(=O)COc2ccc(-c3nc(NC(=O)c4ccccc4C)sc3C)cc21 | 1050 s |
| Cc1ccc(-c2nc3ccccn3c2NC(=O)NCc2ccccc2)cc1 | 657 s |
| O=C(c1ccc2c(c1)nnn2CCN1CCOCC1)N1CCN(c2ccccc2)CC1 | 616 s |
| Cn1nccc1C(=O)N1CCc2c([nH]c3ccccc23)C1c1ccc(Cl)cc1 (centres undefined) | 1080 s |
| O=C(Nc1ccc(-c2cn3cccnc3n2)cc1)c1ccc(F)c(F)c1 | 647 s |
| Cc1cccc2c(=O)n(C3CCN(C(=O)Nc4ccc5c(c4)OCCO5)CC3)cnc12 | 766 s |
| Cc1nn(C)c(C)c1S(=O)(=O)N1CCC2(CC1)C(=O)N(C(C)C)C2c1ccccc1 (centres undefined) | 837 s |
| CC(Oc1ccc(-c2cnc3ccccc3n2)cc1)C(=O)N(C)Cc1ccco1 (centres undefined) | 620 s |
| CCOC(=O)c1nc(Nc2ccccc2Cl)c2ccccc2n1 | 913 s |
| O=C(c1ccsc1)N1CCCN(c2cc(-c3ccc4c(c3)OCO4)[nH]n2)CC1 | 616 s |
| CCNc1cc(N2CCC(CCC(=O)NCc3c(C)nn(C)c3C)CC2)ncn1 | 575 s |
| O=C(C1CC1)N1CCC(Cc2noc(C3CC3)n2)C1 (centres undefined) | 686 s |
| CCNc1cc(C)nc(N2CCN(C(=O)C(C)C)CC2)n1 | 598 s |
| Cc1ccc(-n2nc(CO)c(C(=O)NC3CCCC3)n2)cc1 | 1030 s |
| CCc1ccc(N2C(=O)CN(S(=O)(=O)c3ccccc3)CC2(C)C(=O)NC2CCCC2)cc1 (centres undefined) | 821 s |
| CC(C)Cc1cc(-c2nn3c(-c4ccccc4F)nnc3s2)n[nH]1 | 915 s |
| Cc1ccc(NC(=O)C2CCCN(S(=O)(=O)c3c[nH]c(C(=O)N4CCCCCC4)c3)C2)cc1 (centres undefined) | 926 s |
| Cc1ccc(-c2nc3cc(C)ccn3c2NC(=O)c2ccc(Cl)cc2)cc1 | 742 s |
